Assay results reported in patent publication US20240018132A1, “5-HYDROXY-1,4-NAPHTHALENEDIONE FOR USE IN THE TREATMENT OF CANCER” (GODAVARI BIOREFINERIES LIMITED, priority 2020, published 2024).

How the values were obtained:
[1] = test system: MDAMB231; assay: In vitro antiproliferative assay (MTT assay), breast cancer cell line; type: cell-based; settings: Homo sapiens
Experimental: (§1) MTT assay is a simple and sensitive assay where, metabolic reducing activity of the cells is measured. The increase of this activity in time is taken as a parameter of cell growth. If treatment with a drug impairs this increase, the action is a consequence of growth inhibition, cell killing or both. […] All cell lines were cultured in a 37° C. incubator with a 5% CO2 environment. Compounds were dissolved in DMSO with a concentration of 0.1M (stock solution). Cells were seeded into 96-well plates at suitable plating efficiency.
(§2) Following plating efficiencies were standardized for MTT assay:
(§3) In the MTT procedure, the cells were plated in 96 well plates as per predetermined plating efficiency (Table1). The plates were then incubated for 24 hrs in 5% CO2 atmosphere at 37° C. Appropriate concentrations of the drugs were then added to the plate and further incubation was carried out for 48 hrs (in 5% CO2 atmosphere at 37° C.). The assay plate was then centrifuged twice at 3000 rpm for 3 mins and supernatant was then discarded. 100 ul of MTT solution (0.5 mg/ml) was then added to each well of the plate and it was further incubated for 4 hrs (in 5% CO2 atmosphere at 37° C.) Following 4 hr incubation, the plate was then centrifuged twice, and supernatant was aspirated off very carefully. 200 ul of DMSO was then added to each well to solubilize. MTT crystals and mixed well by shaking the plate. XY graph of log percent viability was then plotted against log drug concentration.

[2] = test system: PC3; assay: In vitro antiproliferative assay (MTT assay), prostate cancer cell line; type: cell-based; settings: Homo sapiens
Experimental: as §1, §2, §3

[3] = test system: MDAMB231; assay: In vitro sphere-forming assay (cancer stem cells), Mammosphere media; settings: for viability at 0.0025 µM / viability at 0.025 µM / viability at 0.25 µM / viability at 2.5 µM / viability at 25 µM: Homo sapiens, MDA-MB-231, read-out: % Viability of spheres (MDAMB231); for 3D sphere count of MDAMB231: Mammosphere media, 2000 cells/well, n = 6 ± S.D
[4] = test system: PC3; assay: In vitro sphere-forming assay (cancer stem cells), Prostosphere media; settings: for viability at 0.0025 µM / viability at 0.025 µM / viability at 0.25 µM / viability at 2.5 µM / viability at 25 µM: Homo sapiens, PC-3, read-out: % Viability of spheres (PC3); for 3D sphere count of PC3: Prostosphere media, 2000 cells/well, n = 6 ± S.D
Experimental: In Vitro Sphere-forming Assay: Sphere assay measures the ability of cancer stem cells (CSCs) to form spheres in specially designed serum-free medium.
Prostosphere Media Preparation (For 100 mL):1 g methyl cellulose autoclaved with magnetic stirrer, 100 mL plain media (Prostate Epithelial Basal Medium) was added and dissolved, under magnetic stirring. After complete dissolution, Insulin-40 μL, B27-2 mL, EGF-80 μL, Penstrep-1 ml was added.
Procedure—The cells were trypsinised and made into single-cell suspension by passing through cell strainers (100 μl and 40 μl, respectively), The cells were diluted at a concentration of 2000 cells/100 μL and suspended in either Mammosphere (for breast cell lines) or Prostosphere (for prostate cell lines). 100 μL of this suspension was added into each well of 96-well suspension plates and incubated at 37° C., 5% CO2 for 24 hrs. Appropriate concentrations of the drugs (2 μL) were added into respective wells with 100 μL of stem cell culture medium. Plates were incubated at 37° C., 50 CO2 for 72 hrs. After incubation, 2.5 μL of the respective drug concentration and 50 μL of stem cell culture medium were added into each well and the plates were further incubated at 37° C., 50% CO2 for 72 hrs. 3 μL of the respective drug concentration was added with 50 μL of stem cell culture medium again after incubation and plates were reincubated for 72 hrs at 37° C., 50 CO2. Number of primary spheres formed for each concentration were counted. The spheres were converted to 0 viability of spheres compared to untreated (Growth Control with DMSO, GCD).

[5] = MDA-MB-231, MTT assay, MDAMB231
[6] = MDA-MB-231, 48 h, MTT assay, breast cancer MDAMB231, 48 hrs drug incubation
[7] = PC-3, 48 h, MTT assay, prostate cancer PC3, 48 hrs drug incubation

SMILES	viability at 0.0025 µM [3] [%]	viability at 0.025 µM [3] [%]	viability at 0.25 µM [3] [%]	viability at 2.5 µM [3] [%]	viability at 25 µM [3] [%]	3D sphere count of MDAMB231 ([3]; drug 0.0025 uM)	3D sphere count of MDAMB231 ([3]; drug 0.025 uM)	3D sphere count of MDAMB231 ([3]; drug 0.25 uM)	3D sphere count of MDAMB231 ([3]; drug 2.5 uM)	3D sphere count of MDAMB231 ([3]; drug 25 uM)	IC50 [1, 6] [nM]	IC50 [2, 7] [nM]	viability at 0.0025 µM [4] [%]	viability at 0.025 µM [4] [%]	viability at 0.25 µM [4] [%]	viability at 2.5 µM [4] [%]	viability at 25 µM [4] [%]	3D sphere count of PC3 ([4]; drug 0.0025 uM)	3D sphere count of PC3 ([4]; drug 0.025 uM)	3D sphere count of PC3 ([4]; drug 0.25 uM)	other results
COc1ccc(OC2=CC(=O)c3c(OCCCCN4CCOCC4)cccc3C2=O)cc1 [Formula 85]	–	–	–	–	–	–	–	–	–	–	–	–	–	–	–	–	–	–	–	–	IC50 [1, 5]: 4140 nM; IC50 ([2]; PC-3, MTT assay, PC3): 2360 nM
COc1ccc(OC2=CC(=O)c3c(OCCCN4CCOCC4)cccc3C2=O)cc1 [Formula 77]	82	70	53	40	30	74(±4)	63(±5)	48(±3)	36(±4)	27(±3)	2220	269	80	68	51	36	26	64(±3)	55(±3)	41(±3)	3D sphere count of PC3 ([4]; drug 2.5 uM): 29(±6); 3D sphere count of PC3 ([4]; drug 25 uM): 21(±3)
O=C1C(Oc2ccc(F)c(F)c2)=CC(=O)c2c(OCCN3CCOCC3)cccc21 [Formula 76]	82	67	56	40	29	74(±3)	61(±2)	51(±3)	36(±3)	26(±4)	2480	324	86	72	55	38	28	69(±3)	58(±4)	44(±4)	3D sphere count of PC3 ([4]; drug 2.5 uM): 31(±3); 3D sphere count of PC3 ([4]; drug 25 uM): 23(±3)
O=C1C(Oc2ccc(F)cc2)=CC(=O)c2c(OCCN3CCOCC3)cccc21 [Formula 75, 5-(2-morpholinoethoxy)-2-(4-fluorophenoxy) naphthalene-1,4-dione]	80	56	45	32	17	64(±3)	45(±3)	36(±4)	26(±3)	14(±3)	566	306	82	57	47	33	20	66(±4)	46(±4)	38(±3)	3D sphere count of PC3 ([4]; drug 2.5 uM): 27(±3); 3D sphere count of PC3 ([4]; drug 25 uM): 16(±2)
COc1ccc(OC2=CC(=O)c3c(OCCN4CCCCC4)cccc3C2=O)cc1 [Formula 84]	–	–	–	–	–	–	–	–	–	–	–	–	–	–	–	–	–	–	–	–	IC50 [1, 5]: 562 nM; IC50 ([2]; PC-3, MTT assay, PC3): 492 nM
